Test results: BigSolDB 2.1

NC(=O)Nc1ccccc1
solubility (mole fraction)
Conditions | 283.15 K | 288.15 K | 293.15 K | 298.15 K | 303.15 K | 308.15 K | 313.15 K | 318.15 K | 323.15 K
in 1,2-dichloroethane | 0.000433 | 0.000528 | 0.000706 | 0.000952 | 0.0012 | 0.00151 | 0.002 | 0.00257 | 0.00315
in 1,4-dioxane | – | 0.0128 | 0.0152 | 0.0183 | 0.022 | 0.0276 | 0.0348 | 0.0433 | 0.0525
in DMF | 0.205 | 0.212 | 0.22 | 0.229 | 0.24 | 0.253 | 0.266 | 0.282 | 0.3
in DMSO | – | – | 0.192 | 0.199 | 0.207 | 0.217 | 0.229 | 0.244 | 0.262
in NMP | 0.0457 | 0.0517 | 0.0596 | 0.0686 | 0.0787 | 0.0898 | 0.101 | 0.115 | 0.13
in acetonitrile | 0.00622 | 0.00731 | 0.00867 | 0.0106 | 0.0135 | 0.0177 | 0.0221 | 0.0264 | 0.0318
in ethanol | 0.0236 | 0.0272 | 0.0322 | 0.0383 | 0.0459 | 0.0525 | 0.0612 | 0.072 | 0.082
in ethyl acetate | 0.0147 | 0.0176 | 0.0209 | 0.0257 | 0.0309 | 0.0384 | 0.0461 | 0.0549 | 0.0643
in ethylene glycol | 0.0338 | 0.039 | 0.0448 | 0.0517 | 0.0595 | 0.0681 | 0.0774 | 0.0882 | 0.101
in isopropanol | 0.00903 | 0.0108 | 0.0132 | 0.0164 | 0.0198 | 0.0253 | 0.0321 | 0.0392 | 0.0472
in methanol | 0.0265 | 0.0305 | 0.036 | 0.0421 | 0.0495 | 0.0578 | 0.0672 | 0.0774 | 0.0888
in n-propanol | 0.02 | 0.0235 | 0.0281 | 0.0334 | 0.0394 | 0.0458 | 0.0539 | 0.0629 | 0.0723
in water | 0.000409 | 0.000513 | 0.000649 | 0.000828 | 0.00102 | 0.00124 | 0.0015 | 0.0018 | 0.00208
